{"source": "paper PMC10952572", "about": "“Improved PIEZO1 agonism through 4‐benzoic acid modification of Yoda1” (British Journal of Pharmacology, 2023)", "key": {"mPIEZO1": {"target": "T1, mPIEZO1 (Mus musculus, UniProt E2JF22)", "T1 construct": "expressed in transfected cells", "T1 sequence (E2JF22 whole entry)": "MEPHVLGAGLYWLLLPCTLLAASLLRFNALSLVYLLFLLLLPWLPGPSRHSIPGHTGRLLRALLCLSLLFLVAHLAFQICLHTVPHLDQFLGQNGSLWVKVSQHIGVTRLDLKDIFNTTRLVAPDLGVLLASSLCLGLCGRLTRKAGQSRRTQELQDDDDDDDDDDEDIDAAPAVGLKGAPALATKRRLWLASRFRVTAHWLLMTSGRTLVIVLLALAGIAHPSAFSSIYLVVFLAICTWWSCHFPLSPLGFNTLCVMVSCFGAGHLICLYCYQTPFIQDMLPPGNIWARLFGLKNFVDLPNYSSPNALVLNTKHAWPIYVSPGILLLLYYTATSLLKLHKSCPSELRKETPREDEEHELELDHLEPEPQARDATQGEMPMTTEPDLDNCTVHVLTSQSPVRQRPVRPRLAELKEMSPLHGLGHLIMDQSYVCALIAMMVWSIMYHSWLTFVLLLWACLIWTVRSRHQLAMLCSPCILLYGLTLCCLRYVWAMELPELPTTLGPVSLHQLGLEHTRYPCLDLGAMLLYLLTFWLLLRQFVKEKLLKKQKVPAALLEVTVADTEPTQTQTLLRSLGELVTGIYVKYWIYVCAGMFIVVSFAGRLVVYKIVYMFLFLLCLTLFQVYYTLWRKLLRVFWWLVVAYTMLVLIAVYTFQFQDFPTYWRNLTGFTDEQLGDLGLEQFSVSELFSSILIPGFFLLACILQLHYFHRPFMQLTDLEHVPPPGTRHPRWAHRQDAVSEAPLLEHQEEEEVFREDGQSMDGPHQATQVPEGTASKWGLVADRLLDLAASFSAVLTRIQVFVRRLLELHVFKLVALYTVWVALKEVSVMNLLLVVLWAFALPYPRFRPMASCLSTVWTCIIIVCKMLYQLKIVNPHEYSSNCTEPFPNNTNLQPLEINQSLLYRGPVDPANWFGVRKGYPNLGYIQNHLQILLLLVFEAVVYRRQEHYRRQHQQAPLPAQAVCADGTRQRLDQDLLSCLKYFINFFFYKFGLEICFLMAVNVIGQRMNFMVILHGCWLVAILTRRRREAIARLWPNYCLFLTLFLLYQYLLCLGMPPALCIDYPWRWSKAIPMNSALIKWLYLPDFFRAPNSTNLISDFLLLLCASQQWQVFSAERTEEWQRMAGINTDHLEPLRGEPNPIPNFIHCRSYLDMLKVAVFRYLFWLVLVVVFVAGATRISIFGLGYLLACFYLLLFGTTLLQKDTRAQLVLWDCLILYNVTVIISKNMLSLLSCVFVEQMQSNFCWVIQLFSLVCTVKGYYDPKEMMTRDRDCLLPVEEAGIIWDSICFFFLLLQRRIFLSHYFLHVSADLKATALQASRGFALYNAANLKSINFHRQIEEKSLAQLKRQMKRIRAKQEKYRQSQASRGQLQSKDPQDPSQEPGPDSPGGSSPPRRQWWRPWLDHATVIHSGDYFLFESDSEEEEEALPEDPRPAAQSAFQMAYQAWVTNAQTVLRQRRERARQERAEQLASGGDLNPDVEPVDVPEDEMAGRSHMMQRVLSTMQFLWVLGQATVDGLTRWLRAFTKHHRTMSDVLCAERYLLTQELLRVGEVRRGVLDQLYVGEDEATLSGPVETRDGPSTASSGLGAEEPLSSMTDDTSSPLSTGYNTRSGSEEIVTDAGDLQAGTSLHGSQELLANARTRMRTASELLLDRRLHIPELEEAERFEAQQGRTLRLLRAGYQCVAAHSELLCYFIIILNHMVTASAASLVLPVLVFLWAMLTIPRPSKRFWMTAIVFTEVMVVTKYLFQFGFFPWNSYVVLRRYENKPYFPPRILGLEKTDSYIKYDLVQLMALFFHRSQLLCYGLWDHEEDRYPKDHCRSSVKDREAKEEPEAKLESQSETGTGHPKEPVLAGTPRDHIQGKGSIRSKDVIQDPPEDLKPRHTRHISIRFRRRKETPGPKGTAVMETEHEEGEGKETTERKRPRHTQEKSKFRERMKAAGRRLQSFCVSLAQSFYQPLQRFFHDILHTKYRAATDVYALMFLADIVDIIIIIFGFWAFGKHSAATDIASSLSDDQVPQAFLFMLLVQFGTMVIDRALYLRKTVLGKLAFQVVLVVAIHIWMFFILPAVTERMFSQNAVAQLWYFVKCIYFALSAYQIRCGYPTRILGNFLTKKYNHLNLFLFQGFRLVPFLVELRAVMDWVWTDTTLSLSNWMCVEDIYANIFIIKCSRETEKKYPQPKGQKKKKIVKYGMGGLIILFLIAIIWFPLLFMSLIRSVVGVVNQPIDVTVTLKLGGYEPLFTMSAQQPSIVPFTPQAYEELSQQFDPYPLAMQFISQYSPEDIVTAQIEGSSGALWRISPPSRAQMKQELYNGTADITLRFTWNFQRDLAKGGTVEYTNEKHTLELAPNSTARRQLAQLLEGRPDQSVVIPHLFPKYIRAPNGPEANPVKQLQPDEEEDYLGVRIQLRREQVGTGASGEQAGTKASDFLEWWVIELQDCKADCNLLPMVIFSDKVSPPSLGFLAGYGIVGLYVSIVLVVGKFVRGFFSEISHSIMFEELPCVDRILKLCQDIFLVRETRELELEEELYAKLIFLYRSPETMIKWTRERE", "assay": "Intracellular Ca2+ measurement (Fura-2) in mPIEZO1-TREx cells", "assay_type": "cell-based", "conditions": "for Peak ΔCa2+i (ΔF340/380), median fold difference compared to Yoda1: 10 μM compound, mPIEZO1-TREx cells, paired with 10 μM Yoda1; for Ca2+ response (agonist effect): 10 μM, cells overexpressing mPIEZO1, compared with Yoda1; for EC50: overexpressed mouse PIEZO1, calcium assays", "text": "HEK T‐REx™ cells that constitutively overexpress murine PIEZO1 were generated as previously described (Blythe et al., [2019]). pcDNA3 mouse PIEZO1 (mPIEZO1) IRES green fluorescent protein (GFP), a gift from Ardem Patapoutian (Coste et al., [2010]), was used as a template to clone the mPIEZO1 coding sequence into pcDNA4/TO. Overlapping mPIEZO1 (forward primer 5′‐[…]‐3′ and reverse primer 5′‐[…]‐3′) and pcDNA4/TO (forward primer 5′‐[…]‐3′ and reverse primer 5′‐[…]‐3′) PCR products were assembled using Gibson Assembly (New England Biolabs). […] HEK T‐REx™ 293 cells were transfected with pcDNA4/TO‐mPIEZO1 using Lipofectamine 2000 (Invitrogen) and treated with 200 μg·ml^−1 zeocin to select stably transfected cells. Individual clones were isolated and analysed for expression using Yoda1 and intracellular Ca^2+ measurements. These cells are referred to as mPIEZO1‐TREx.\nHEK 293‐TREx cells and their stably transfected derivatives or transiently transfected HEK 293 or HeLa cells were seeded at a density of 7.5 × 10^4 cells per well into poly‐D‐lysine‐coated 96‐well plates. The plates were either commercially pre‐coated with poly‐D‐lysine (Greiner Bio‐One #655946) or (Greiner Bio‐One #655090) were coated in‐house with 35 μl of a 10 μg·ml^−1 poly‐D‐lysine (Bio‐Techne, Cultrex # 3439‐100‐01) in sterile deionised water per well for at least 24 h and rinsed three times with 100 μl per well sterile D‐PBS before addition of cells. HUVECs were seeded into tissue culture‐treated 96‐well plates (Greiner Bio‐One #655090) at a density of either 2.5 × 10^4 cells 24 h before experimentation or 1.25 × 10^4 cells 48 h before experimentation. Cells were incubated with 2 μM Fura‐2‐AM (Molecular Probes™) in the presence of 0.01% (wt./vol.) pluronic F127 (Sigma‐Aldrich #P2443) in standard bath solution (SBS) for 1 h at 37°C. Cells were washed with SBS for 30 min at room temperature. Alternatively, if inhibitors were being tested, these were added at this time, immediately following a wash in SBS. (−)‐Englerin A (Akbulut et al., [2015]) was used in SBS containing 0.01% pluronic acid as a dispersing agent to minimise aggregation of compound. Unless otherwise stated, the final concentration of DMSO was 0.2% (vol./vol). Working 2000× stock solutions of test compounds were freshly made in DMSO and diluted 1000‐fold in SBS during the 30 min SBS wash/inhibitor pre‐incubation period to obtain 2× solutions for injection. When testing the highest concentration of Yoda1, KC159 and KC289 (30 μM), the final DMSO concentration was 0.6% (vol./vol.). Measurements were made at room temperature on a 96‐well fluorescence plate reader (FlexStation 3, Molecular Devices, Sunnyvale, CA, USA) controlled by SoftMax Pro software v7.0.3. Recipient wells containing 80 μl SBS/0.2% (vol./vol.) DMSO vehicle or inhibitor compound received 80 μl 2× compound at an injection rate of 1 μl·s^−1, and the pipette introduced liquids from a height setting of 70 μl. No trituration was performed. For recordings using Fura‐2, the change in intracellular Ca was indicated as the ratio of Fura‐2 emission (510 nm) intensities at 340 and 380 nm excitation. Photomultipliers were set to medium sensitivity. SBS contained 130 mM NaCl, 5 mM KCl, 8 mM D‐glucose, 10 mM HEPES, 1.2 mM MgCl2 and 1.5 mM CaCl2, and the pH was adjusted to 7.4 with NaOH. The solution was filtered through a 0.2 μm bottle‐top filter prior to use and handled aseptically thereafter.\nFor intracellular Ca^2+ (Ca^2+i) measurements, technical intra‐experiment replicates were used to improve confidence in the data. Analysis of individual experiments was performed to obtain mean ± SEM values. For collated analysis of independent experiments, where normal distributions were not evidenced by Shapiro–Wilk normality tests, non‐parametric distributions were assumed, and therefore, median values were used. […]"}, "mouse portal vein": {"system": "mouse portal vein", "assay": "Wire myography, relaxation of phenylephrine pre-constricted vein", "conditions": "for Relaxation of portal vein: 0.1-10 μM, pre-constricted with 10 μM phenylephrine; for EC50: mouse portal vein pre-constricted with 10 μM phenylephrine, Hill fit", "protocol": "Mice were anaesthetised with isoflurane (5% induction and 1.5% maintenance) in 95% O2 according to Schedule 1 procedure approved by the UK Home Office. The portal vein was quickly dissected and placed in Krebs solution. The Krebs PV solution consisted of 118 mM NaCl, 4.7 mM KCl, 2.5 mM CaCl2, 1.2 mM KH2PO4, 1.2 mM MgSO4·7H2O, 25.2 mM NaHCO3 and 11.1 mM glucose. By means of a dissecting microscope, adhering perivascular tissue was carefully removed and the vein was cut into 1 mm segments.\nVein segments were mounted onto two thin stainless steel wires in an isometric myograph (Multi Wire Myograph System 620M from Danish Myograph Technology [DMT]), for which the force transducer was calibrated once per month according to the manufacturer's instructions. The recording chamber was filled with gassed Krebs solution (95% O2/5% CO2, pH 7.4). The segments were then stretched to a normalised internal diameter according to the manufacturer's instructions. The mounted rings were kept in a 5 ml chamber containing Krebs solution at 37°C and continuously bubbled with a gas mixture of 95% O2 and 5% CO2 (pH 7.4). After an equilibration period of 60 min, the contractile function of the vessel was tested by replacing the Krebs solution by 60 mM K^+ solution. Following washout, the vein was contracted once with 10 μM phenylephrine and then Yoda1, KC159 or KC289 was applied with the concentrations of 0.1 to 10 μM. The NOS inhibitor, L‐NAME, (100 μM), was pre‐incubated for 20 min before the PIEZO1 modulator.\nBecause the anticipated effect of test compounds was to cause vessel relaxation, phenylephrine was applied to induce tension and the maximum value of this tension was defined as 0% relaxation (no relaxation). The value of tension immediately prior to application of phenylephrine was defined as 100% relaxation. Data are normalised to these values because, otherwise, the intrinsic variability in the absolute amount of tension induced by phenylephrine obscured exploration of the relaxant effect of compounds.\nOriginPro 2020 was used for the analysis of myography data. Myography traces show readings taken every 0.5 or 1 s and were smoothed with the Savitzky–Golay filter set to 70 points. To compare the agonistic activity of Yoda1 analogues, basal vessel tension prior to compound injection was subtracted. Maximal tension in the presence of PE alone was used to define 0% relaxation. The tension value prior to PE application was defined as 100% relaxation. Following the addition of test compounds, tension readings were taken at the last time point of the treatments and expressed as percentage relaxation."}}}
{"compound": "O=C(O)c1ccccc1-c1nnc(SCc2c(Cl)cccc2Cl)s1", "note": "[KC157]", "values": [{"measurement": "Peak ΔCa2+i (ΔF340/380), median fold difference compared to Yoda1", "setting": "mPIEZO1", "result": "−70.6", "unit": "fold"}, {"measurement": "Ca2+ response (agonist effect)", "setting": "mPIEZO1", "result": "inactive"}]}
{"compound": "O=C(O)c1ccc(-c2nnc(SCc3c(Cl)cccc3Cl)s2)cc1", "note": "[KC159]", "values": [{"measurement": "Relaxation of portal vein", "setting": "mouse portal vein", "result": "concentration‐dependent relaxation"}, {"measurement": "EC50", "setting": "mouse portal vein", "result": 1140, "unit": "nM"}, {"measurement": "Peak ΔCa2+i (ΔF340/380), median fold difference compared to Yoda1", "setting": "mPIEZO1", "result": "+1.1 fold"}, {"measurement": "Ca2+ response (agonist effect)", "setting": "mPIEZO1", "result": "larger responses than Yoda1"}, {"measurement": "EC50", "setting": "mPIEZO1", "result": 280, "unit": "nM"}]}
{"compound": "O=C([O-])c1ccc(-c2nnc(SCc3c(Cl)cccc3Cl)s2)cc1.[K+]", "note": "[KC289]", "values": [{"measurement": "Relaxation of portal vein", "setting": "mouse portal vein", "result": "concentration‐dependent relaxation"}, {"measurement": "EC50", "setting": "mouse portal vein; Mus musculus", "result": 1200, "unit": "nM"}, {"measurement": "Relaxation in portal vein from PIEZO1ΔEC mice", "setting": "mouse portal vein; endothelial PIEZO1 deletion versus control mice", "result": "inhibited by endothelial PIEZO1 deletion"}, {"measurement": "Relaxant effect after L-NAME", "setting": "mouse portal vein; pre-incubation with 100 μM L-NAME", "result": "abolishes the relaxant effect"}, {"measurement": "Peak ΔCa2+i (ΔF340/380), median fold difference compared to Yoda1", "setting": "mPIEZO1", "result": "+1.2 fold"}, {"measurement": "Ca2+ response (agonist effect)", "setting": "mPIEZO1", "result": "larger responses than Yoda1"}, {"measurement": "Potency relative to Yoda1", "setting": "mPIEZO1; mPIEZO1, from EC50 values", "result": "approximately four times more potent than Yoda1"}, {"measurement": "EC50", "setting": "mPIEZO1", "result": 150, "unit": "nM"}]}
{"compound": "Clc1cccc(Cl)c1CSc1nnc(-c2cnccn2)s1", "note": "[Yoda1, 2‐[5‐[[(2,6‐dichlorophenyl)methyl]thio]‐1,3,4‐thiadiazol‐2‐yl]pyrazine]", "values": [{"measurement": "Relaxation of portal vein", "setting": "mouse portal vein", "result": "concentration‐dependent relaxation"}, {"measurement": "EC50", "setting": "mPIEZO1", "result": 600, "unit": "nM"}]}
